{"source": "patent US9828393B2", "about": "“Silylalkyloxyaryl compounds and methods for treating cancer” (THE REGENTS OF THE UNIVERSITY OF COLORADO, a body corporate, priority 2013, dated 2017)", "key": {"UACC-257": {"test_system": "UACC-257", "assay": "NCI-60 cell line screen (SRB), UACC-257", "type": "cell-based, human", "details": "Homo sapiens", "experimental": "(§1) Drug sensitivity data are provided as GI50s (concentrations required to inhibit growth by 50%). The first row of the text file identifies cell lines, separated by tabs. Subsequent rows contain compound number, compound name, and GI50 for each cell line, each separated by a tab. […] For a typical screening experiment, cells are inoculated into 96 well microtiter plates in 100 μL at plating densities ranging from 5,000 to 40,000 cells/well depending on the doubling time of individual cell lines. After cell inoculation, the microtiter plates are incubated at 37° C., 5% CO2, 95% air and 100% relative humidity for 24 h prior to addition of experimental drugs. After 24 h, two plates of each cell line are fixed in situ with TCA, to represent a measurement of the cell population for each cell line at the time of drug addition (Tz). Experimental drugs are solubilized in dimethyl sulfoxide at 400-fold the desired final maximum test concentration and stored frozen prior to use. At the time of drug addition, an aliquot of frozen concentrate is thawed and diluted to twice the desired final maximum test concentration with complete medium containing 50 μg/ml gentamicin. Additional four, 10-fold or one-half log serial dilutions are made to provide a total of five drug concentrations plus control. Aliquots of 100 μl of these different drug dilutions are added to the appropriate microtiter wells already containing 100 μl of medium, resulting in the required final drug concentrations. Following drug addition, the plates are incubated for an additional 48 h at 37° C., 5% CO2, 95% air, and 100% relative humidity. For adherent cells, the assay is terminated by the addition of cold TCA. Cells are fixed in situ by the gentle addition of 50 μl of cold 50% (w/v) TCA (final concentration, 10% TCA) and incubated for 60 minutes at 4° C. The supernatant is discarded, and the plates are washed five times with tap water and air dried. Sulforhodamine B (SRB) solution (100 μl) at 0.4% (w/v) in 1% acetic acid is added to each well, and plates are incubated for 10 minutes at room temperature. After staining, unbound dye is removed by washing five times with 1% acetic acid and the plates are air dried. Bound stain is subsequently solubilized with 10 mM trizma base, and the absorbance is read on an automated plate reader at a wavelength of 515 nm. For suspension cells, the methodology is the same except that the assay is terminated by fixing settled cells at the bottom of the wells by gently adding 50 μl of 80% TCA (final concentration, 16% TCA). Using the seven absorbance measurements [time zero, (Tz), control growth, (C), and test growth in the presence of drug at the five concentration levels (Ti)], the percentage growth is calculated at each of the drug concentrations levels. […]"}, "RXF 393": {"test_system": "RXF 393", "assay": "NCI-60 cell line screen (SRB), RXF 393", "type": "cell-based, human", "details": "Homo sapiens", "experimental": "as §1"}, "OVCAR-5": {"test_system": "OVCAR-5", "assay": "NCI-60 cell line screen (SRB), OVCAR-5", "type": "cell-based, human", "details": "Homo sapiens", "experimental": "as §1"}, "K-562": {"test_system": "K-562", "assay": "NCI-60 cell line screen (SRB), K-562", "type": "cell-based, human", "details": "Homo sapiens", "experimental": "as §1"}, "TK-10": {"test_system": "TK-10", "assay": "NCI-60 cell line screen (SRB), TK-10", "type": "cell-based, human", "details": "Homo sapiens", "experimental": "as §1"}, "U-251": {"test_system": "U-251", "assay": "NCI-60 cell line screen (SRB), U-251", "type": "cell-based, human", "details": "Homo sapiens", "experimental": "as §1"}, "HOP-62": {"test_system": "HOP-62", "assay": "NCI-60 cell line screen (SRB), HOP-62", "type": "cell-based, human", "details": "Homo sapiens", "experimental": "as §1"}, "SK-MEL-2": {"test_system": "SK-MEL-2", "assay": "NCI-60 cell line screen (SRB), SK-MEL-2", "type": "cell-based, human", "details": "Homo sapiens", "experimental": "as §1"}, "ACHN": {"test_system": "ACHN", "assay": "NCI-60 cell line screen (SRB), ACHN", "type": "cell-based, human", "details": "Homo sapiens", "experimental": "as §1"}, "HOP-92": {"test_system": "HOP-92", "assay": "NCI-60 cell line screen (SRB), HOP-92", "type": "cell-based, human", "details": "Homo sapiens", "experimental": "as §1"}, "UO-31": {"test_system": "UO-31", "assay": "NCI-60 cell line screen (SRB), UO-31", "type": "cell-based, human", "details": "Homo sapiens", "experimental": "as §1"}, "UACC-62": {"test_system": "UACC-62", "assay": "NCI-60 cell line screen (SRB), UACC-62", "type": "cell-based, human", "details": "Homo sapiens", "experimental": "as §1"}, "MDA-MB-231/ATCC": {"test_system": "MDA-MB-231/ATCC", "assay": "NCI-60 cell line screen (SRB), MDA-MB-231/ATCC", "type": "cell-based, human", "details": "Homo sapiens", "experimental": "as §1"}, "NCI-H522": {"test_system": "NCI-H522", "assay": "NCI-60 cell line screen (SRB), NCI-H522", "type": "cell-based, human", "details": "Homo sapiens", "experimental": "as §1"}, "SK-OV-3": {"test_system": "SK-OV-3", "assay": "NCI-60 cell line screen (SRB), SK-OV-3", "type": "cell-based, human", "details": "Homo sapiens", "experimental": "as §1"}, "CNS Cancer cell lines": {"test_system": "CNS Cancer cell lines", "assay": "NCI-60 cell line screen, CNS Cancer panel average", "type": "cell-based, human", "details": "Homo sapiens, read-out: GI50 Average", "experimental": "as §1"}, "[1]": {"test_system": "Prostate Cancer cell lines", "assay": "NCI-60 cell line screen, Prostate Cancer panel average", "type": "cell-based, human", "details": "Homo sapiens, read-out: GI50 Average", "experimental": "as §1"}, "MALME-3M": {"test_system": "MALME-3M", "assay": "NCI-60 cell line screen (SRB), MALME-3M", "type": "cell-based, human", "details": "Homo sapiens", "experimental": "as §1"}, "Breast Cancer cell lines": {"test_system": "Breast Cancer cell lines", "assay": "NCI-60 cell line screen, Breast Cancer panel average", "type": "cell-based, human", "details": "Homo sapiens, read-out: GI50 Average", "experimental": "as §1"}, "[2]": {"biological_target": "EZH2 (Enhancer of Zeste Homologue 2), a Histone H3 Lys 27 (H3K27) methyltransferase (Homo sapiens, UniProt Q15910)", "sequence (Q15910 whole entry)": "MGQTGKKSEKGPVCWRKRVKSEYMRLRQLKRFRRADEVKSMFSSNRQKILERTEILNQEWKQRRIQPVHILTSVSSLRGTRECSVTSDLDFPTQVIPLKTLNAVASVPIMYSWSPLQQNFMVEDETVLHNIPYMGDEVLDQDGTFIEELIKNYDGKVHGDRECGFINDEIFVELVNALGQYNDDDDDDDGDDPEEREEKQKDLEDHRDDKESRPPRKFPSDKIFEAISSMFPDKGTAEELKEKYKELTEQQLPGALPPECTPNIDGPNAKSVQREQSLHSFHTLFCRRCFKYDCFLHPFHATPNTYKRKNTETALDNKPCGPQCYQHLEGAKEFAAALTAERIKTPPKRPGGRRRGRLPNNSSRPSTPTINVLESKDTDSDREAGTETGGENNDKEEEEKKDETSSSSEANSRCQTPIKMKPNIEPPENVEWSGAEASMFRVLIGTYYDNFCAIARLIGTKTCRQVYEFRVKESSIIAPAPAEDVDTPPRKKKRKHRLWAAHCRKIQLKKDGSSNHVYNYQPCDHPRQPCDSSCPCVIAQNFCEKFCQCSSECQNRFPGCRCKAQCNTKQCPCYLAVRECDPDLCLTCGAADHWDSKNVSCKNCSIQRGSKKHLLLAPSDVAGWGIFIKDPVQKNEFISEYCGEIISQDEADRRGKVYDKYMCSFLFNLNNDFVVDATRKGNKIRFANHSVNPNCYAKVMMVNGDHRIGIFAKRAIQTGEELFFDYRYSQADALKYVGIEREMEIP", "sequence (O75530 whole entry partner)": "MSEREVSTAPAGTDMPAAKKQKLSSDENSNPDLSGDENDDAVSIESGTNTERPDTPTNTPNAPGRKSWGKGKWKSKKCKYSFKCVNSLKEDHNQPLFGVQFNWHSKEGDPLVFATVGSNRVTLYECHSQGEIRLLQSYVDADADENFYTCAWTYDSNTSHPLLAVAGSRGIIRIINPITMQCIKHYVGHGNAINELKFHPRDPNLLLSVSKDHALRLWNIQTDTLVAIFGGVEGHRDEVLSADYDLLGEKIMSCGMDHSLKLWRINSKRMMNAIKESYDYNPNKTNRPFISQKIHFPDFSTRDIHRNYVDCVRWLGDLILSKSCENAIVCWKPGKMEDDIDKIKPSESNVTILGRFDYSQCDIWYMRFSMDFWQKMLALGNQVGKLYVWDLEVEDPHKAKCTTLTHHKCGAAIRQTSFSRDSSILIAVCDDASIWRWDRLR", "sequence (Q15022 whole entry partner)": "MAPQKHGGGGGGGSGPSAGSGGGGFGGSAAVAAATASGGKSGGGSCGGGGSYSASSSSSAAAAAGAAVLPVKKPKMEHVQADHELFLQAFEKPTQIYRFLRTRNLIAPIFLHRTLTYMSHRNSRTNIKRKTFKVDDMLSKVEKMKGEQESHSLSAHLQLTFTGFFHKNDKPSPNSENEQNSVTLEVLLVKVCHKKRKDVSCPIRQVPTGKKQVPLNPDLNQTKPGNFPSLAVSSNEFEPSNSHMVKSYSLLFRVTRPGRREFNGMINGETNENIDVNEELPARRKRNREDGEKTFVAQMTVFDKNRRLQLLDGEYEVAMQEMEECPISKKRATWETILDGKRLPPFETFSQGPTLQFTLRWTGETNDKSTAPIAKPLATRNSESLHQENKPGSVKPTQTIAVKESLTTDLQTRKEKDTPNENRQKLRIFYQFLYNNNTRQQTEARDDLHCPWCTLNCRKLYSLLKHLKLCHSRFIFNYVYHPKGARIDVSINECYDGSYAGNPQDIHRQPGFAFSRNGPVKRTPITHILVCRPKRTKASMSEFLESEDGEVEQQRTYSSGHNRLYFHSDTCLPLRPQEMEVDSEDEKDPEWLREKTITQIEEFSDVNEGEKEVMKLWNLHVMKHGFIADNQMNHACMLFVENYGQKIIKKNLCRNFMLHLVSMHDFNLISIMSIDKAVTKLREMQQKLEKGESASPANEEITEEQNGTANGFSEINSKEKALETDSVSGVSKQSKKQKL", "assay": "OIDD in vitro target-based assay, EZH2 inhibitory activity", "type": "biochemical", "details": "OIDD screen; FIG. 1", "experimental": "An organosilicon compound of the invention (GH1503) was tested using the in vitro target-based assays through an open innovation drug discovery program (OIDD). The organosilicon compound tested was given OIDD number 2351349879. […] This enzyme plays a critical role in regulating gene expression and is highly expressed in a wide range of cancer types, including bladder, breast, colon, lung, melanoma, pancreatic cancer, melanoma, sarcoma and lymphomas."}}, "note": "Read-outs that look alike come from different tables or passages of the source.", "data": [{"smiles": "CC1(C)CC(NC(=O)[C@H](Cc2ccc(OCc3c(Cl)cccc3Cl)cc2)NC(=O)c2ccc(OCCC[Si](C)(C)C)cc2)CC(C)(C)N1", "note": "[GH1501, N^α-{4-[3-(trimethylsilyl)propoxy]-benzoyl}-N-(2,2,6,6-tetramethylpiperidin-4-yl)-[O-(2,6-dichlorobenzyl)-L-tyrosinamide]]", "values": [{"measurement": "GI50", "setting": "UACC-257; UACC-257, 48 h", "value": 1.88, "unit": "µM"}, {"measurement": "GI50", "setting": "RXF 393; RXF 393, 48 h", "value": 1.51, "unit": "µM"}, {"measurement": "GI50", "setting": "OVCAR-5; OVCAR-5, 48 h", "value": 1.68, "unit": "µM"}, {"measurement": "GI50", "setting": "K-562; K562, 48 h", "value": 0.322, "unit": "µM"}, {"measurement": "GI50", "setting": "TK-10; TK-10, 48 h", "value": 1.85, "unit": "µM"}, {"measurement": "GI50", "setting": "U-251; U-251, 48 h", "value": 0.23, "unit": "µM"}, {"measurement": "GI50", "setting": "HOP-62; HOP-62, 48 h", "value": 1.86, "unit": "µM"}, {"measurement": "GI50", "setting": "SK-MEL-2; SK-MEL-2, 48 h", "value": 1.77, "unit": "µM"}, {"measurement": "GI50", "setting": "ACHN; 48 h", "value": 1.32, "unit": "µM"}, {"measurement": "GI50", "setting": "HOP-92; HOP-92, 48 h", "value": 1.17, "unit": "µM"}, {"measurement": "GI50", "setting": "UO-31; UO-31, 48 h", "value": 1.52, "unit": "µM"}, {"measurement": "GI50", "setting": "UACC-62; UACC-62, 48 h", "value": 1.49, "unit": "µM"}, {"measurement": "GI50", "setting": "MDA-MB-231/ATCC; MDA-MB-231, 48 h", "value": 0.881, "unit": "µM"}, {"measurement": "GI50", "setting": "NCI-H522; NCI-H522, 48 h", "value": 1.82, "unit": "µM"}, {"measurement": "GI50", "setting": "SK-OV-3; SK-OV-3, 48 h", "value": 2.08, "unit": "µM"}, {"measurement": "GI50", "setting": "CNS Cancer cell lines", "value": 1.19, "unit": "µM"}, {"measurement": "GI50", "setting": "[1]", "value": 0.834, "unit": "µM"}, {"measurement": "GI50", "setting": "MALME-3M; Malme-3M, 48 h", "value": 1.46, "unit": "µM"}, {"measurement": "GI50", "setting": "Breast Cancer cell lines", "value": 1.46, "unit": "µM"}]}, {"smiles": "CCCC[Si](C)(C)COc1ccc(C(=O)N[C@@H](Cc2ccc(OCc3c(Cl)cccc3Cl)cc2)C(=O)NC2CC(C)(C)NC(C)(C)C2)cc1", "note": "[GH1503, N^α-{4-[(butyldimethylsilyl)methoxy]-benzoyl}-N-(2,2,6,6-tetramethylpiperidin-4-yl)-[O-(2,6-dichlorobenzyl)-L-tyrosinamide]]", "values": [{"measurement": "GI50", "setting": "UACC-257; Melanoma, UACC-257, 48 h drug incubation, read-out: GI50", "value": 1.87, "unit": "µM"}, {"measurement": "IC50", "setting": "[2]", "value": "in the micromolar range"}, {"measurement": "GI50", "setting": "RXF 393; Renal Cancer, RXF 393, 48 h drug incubation, read-out: GI50", "value": 0.392, "unit": "µM"}, {"measurement": "GI50", "setting": "OVCAR-5; Ovarian Cancer, OVCAR-5, 48 h drug incubation, read-out: GI50", "value": 1.62, "unit": "µM"}, {"measurement": "GI50", "setting": "K-562; K562, Leukemia, K-562, 48 h drug incubation, read-out: GI50", "value": 0.333, "unit": "µM"}, {"measurement": "GI50", "setting": "TK-10; Renal Cancer, TK-10, 48 h drug incubation, read-out: GI50", "value": 1.89, "unit": "µM"}, {"measurement": "GI50", "setting": "U-251; CNS Cancer, U-251, 48 h drug incubation, read-out: GI50", "value": 0.234, "unit": "µM"}, {"measurement": "GI50", "setting": "HOP-62; Non-Small Cell Lung Cancer, HOP-62, 48 h drug incubation, read-out: GI50", "value": 1.51, "unit": "µM"}, {"measurement": "GI50", "setting": "SK-MEL-2; Melanoma, SK-MEL-2, 48 h drug incubation, read-out: GI50", "value": 1.56, "unit": "µM"}, {"measurement": "GI50", "setting": "ACHN; Renal Cancer, 48 h drug incubation, read-out: GI50", "value": 0.478, "unit": "µM"}, {"measurement": "GI50", "setting": "HOP-92; Non-Small Cell Lung Cancer, HOP-92, 48 h drug incubation, read-out: GI50", "value": 1.11, "unit": "µM"}, {"measurement": "GI50", "setting": "UO-31; Renal Cancer, UO-31, 48 h drug incubation, read-out: GI50", "value": 1.5, "unit": "µM"}, {"measurement": "GI50", "setting": "UACC-62; Melanoma, UACC-62, 48 h drug incubation, read-out: GI50", "value": 1.5, "unit": "µM"}, {"measurement": "GI50", "setting": "MDA-MB-231/ATCC; Breast Cancer, MDA-MB-231/ATCC, 48 h drug incubation, read-out: GI50", "value": 0.494, "unit": "µM"}, {"measurement": "GI50", "setting": "NCI-H522; Non-Small Cell Lung Cancer, NCI-H522, 48 h drug incubation, read-out: GI50", "value": 1.97, "unit": "µM"}, {"measurement": "GI50", "setting": "SK-OV-3; Ovarian Cancer, SK-OV-3, 48 h drug incubation, read-out: GI50", "value": 2.03, "unit": "µM"}, {"measurement": "GI50", "setting": "CNS Cancer cell lines; average over CNS Cancer panel", "value": 1.1, "unit": "µM"}, {"measurement": "GI50", "setting": "[1]; average over Prostate Cancer panel", "value": 0.382, "unit": "µM"}, {"measurement": "GI50", "setting": "MALME-3M; Melanoma, MALME-3M, 48 h drug incubation, read-out: GI50", "value": 1.2, "unit": "µM"}, {"measurement": "GI50", "setting": "Breast Cancer cell lines; average over Breast Cancer panel", "value": 1.39, "unit": "µM"}]}]}
